# Assay results: the supplement of paper PMC10307832
# Experiments:
# Assay in all cases: relative viability (nuclei count vs DMSO), 5 days (fraction); higher = more cells survive
# [1] = compound: Cc1nc(NC(=O)N2CCC[C@H]2C(N)=O)sc1-c1ccnc(C(C)(C)C(F)(F)F)c1 [Alpelisib] + Nc1ncn([C@H]2C[C@H](O)[C@@H](CO)O2)c(=O)n1 [Decitabine] (partner 2 µM)
# Summary of the method: (§1)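 Relative viability equals treated-well nuclei counts divided by vehicle-well nuclei counts. Counts came from 4× images of lung cancer cell lines grown in 1536-well plates for 5 days after pin-tool dosing on the day after seeding. Dosing used one drug alone or a fixed anchor-drug dose plus five library-drug doses (not always all listed) in √10 steps, and values are medians of duplicate plates.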
# [2] = compound: COc1cccc2cc(-c3nc([C@H]4CC[C@H](C(=O)O)CC4)n4ncnc(N)c34)[nH]c12 [OSI-027] + Cc1nc(Nc2ncc(C(=O)Nc3c(C)cccc3Cl)s2)cc(N2CCN(CCO)CC2)n1 [Dasatinib] (partner 0.075 µM)
# Summary of the method: as §1
# [3] = compound: CCCS(=O)(=O)Nc1ccc(F)c(C(=O)c2c[nH]c3ncc(-c4ccc(Cl)cc4)cc23)c1F [Vemurafenib] + CC(=O)c1c(C)c2cnc(Nc3ccc(N4CCNCC4)cn3)nc2n(C2CCCC2)c1=O [Palbociclib] (partner 0.5 µM)
# Summary of the method: as §1
# [4] = compound: COc1cccc2cc(-c3nc([C@H]4CC[C@H](C(=O)O)CC4)n4ncnc(N)c34)[nH]c12 [OSI-027] + CC(=O)Nc1cccc(-n2c(=O)n(C3CC3)c(=O)c3c(Nc4ccc(I)cc4F)n(C)c(=O)c(C)c32)c1 [Trametinib] (partner 0.02 µM)
# Summary of the method: as §1
cell line,measurement,setting,value
UMC-11,relative viability,[1]; first compound 0.04 µM,0.513
same,relative viability,[1]; first compound 0.1265 µM,0.636
same,relative viability,[1]; first compound 0.4 µM,0.693
same,relative viability,[1]; first compound 1.265 µM,0.535
same,relative viability,[1]; first compound 4 µM,0.745
same,relative viability,[2]; first compound 0.01 µM,0.537
same,relative viability,[2]; first compound 0.03162 µM,0.457
same,relative viability,[2]; first compound 0.1 µM,0.404
same,relative viability,[2]; first compound 0.3162 µM,0.434
same,relative viability,[2]; first compound 1 µM,0.299
same,relative viability,[3]; first compound 0.03162 µM,0.328
same,relative viability,[3]; first compound 0.1 µM,0.313
same,relative viability,[3]; first compound 1 µM,0.315
same,relative viability,[4]; first compound 0.01 µM,0.727
same,relative viability,[4]; first compound 0.03162 µM,0.772
same,relative viability,[4]; first compound 0.1 µM,0.579
same,relative viability,[4]; first compound 0.3162 µM,0.472
same,relative viability,[4]; first compound 1 µM,0.392
